Experimental data as given in PubChem BioAssay AID1963825 (Molecular Pharmacology Branch, DTP, NCI, 2024).

Test: Anticancer human tumor 997537-175-T-J1-PDC patient-derived colon adenocarcinoma cell line growth inhibition [POLQ]
Conditions: 997537-175-T-J1-PDC complex spheroid viability, combination with POLQ inhibitors; for IC50: curve of first compound; for viability, T/C: stronger effect = lower value
Outline: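 PDC + HUVEC + MSC complex spheroids; POLQ inhibitors ± partner drugs; top conc. at/near clinical Cmax, else 10 microM (SN-38 1 microM), half-log dilutions; 37 degrees C, 5% CO2.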

[1] = second compound 0.0316 µM, first compound 0.0316 µM
[2] = second compound 0.0316 µM, first compound 0.1 µM
[3] = second compound 0.0316 µM, first compound 0.316 µM
[4] = second compound 0.0316 µM, first compound 1 µM
[5] = second compound 0.0316 µM, first compound 3.16 µM
[6] = second compound 0.0316 µM, first compound 10 µM
[7] = second compound 0.1 µM, first compound 0.0316 µM
[8] = second compound 0.1 µM, first compound 0.1 µM
[9] = second compound 0.1 µM, first compound 0.316 µM
[10] = second compound 0.1 µM, first compound 1 µM
[11] = second compound 0.1 µM, first compound 3.16 µM
[12] = second compound 0.1 µM, first compound 10 µM
[13] = second compound 0.316 µM, first compound 0.0316 µM
[14] = second compound 0.316 µM, first compound 0.1 µM
[15] = second compound 0.316 µM, first compound 0.316 µM
[16] = second compound 0.316 µM, first compound 1 µM
[17] = second compound 0.316 µM, first compound 3.16 µM
[18] = second compound 0.316 µM, first compound 10 µM
[19] = second compound 1 µM, first compound 0.0316 µM
[20] = second compound 1 µM, first compound 0.1 µM
[21] = second compound 1 µM, first compound 0.316 µM
[22] = second compound 1 µM, first compound 1 µM
[23] = second compound 1 µM, first compound 3.16 µM
[24] = second compound 1 µM, first compound 10 µM
[25] = second compound 3.16 µM, first compound 0.0316 µM
[26] = second compound 3.16 µM, first compound 0.1 µM
[27] = second compound 3.16 µM, first compound 0.316 µM
[28] = second compound 3.16 µM, first compound 1 µM
[29] = second compound 3.16 µM, first compound 3.16 µM
[30] = second compound 3.16 µM, first compound 10 µM
[31] = second compound 10 µM, first compound 0.0316 µM
[32] = second compound 10 µM, first compound 0.1 µM
[33] = second compound 10 µM, first compound 0.316 µM
[34] = second compound 10 µM, first compound 1 µM
[35] = second compound 10 µM, first compound 3.16 µM
[36] = second compound 10 µM, first compound 10 µM
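Further: luminescence signal used as a surrogate for viable cells; spheroids exposed to drugs for seven days before readout.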

CC1COCCN1c1cc(C2(O)CC3CCC(C2)O3)c2cnn(-c3ccn[nH]3)c2n1 (stereo not drawn) + Cc1cccc(N(C)C(=O)C2C(O)CCN2c2nc(C)cc(C(F)(F)F)c2C#N)c1
IC50 (second compound 0.0316 µM): > 10 µM
IC50 (second compound 0.1 µM): 3.16 µM
IC50 (second compound 0.316 µM): 0.936 µM
IC50 (second compound 1 µM): > 10 µM
IC50 (second compound 3.16 µM): > 10 µM
IC50 (second compound 10 µM): 3.99 µM
viability, T/C [1]: 79.8%
viability, T/C [2]: 96%
viability, T/C [3]: 60%
viability, T/C [4]: 52.8%
viability, T/C [5]: 58.3%
viability, T/C [6]: 39%
viability, T/C [7]: 94.8%
viability, T/C [8]: 94.2%
viability, T/C [9]: 48.6%
viability, T/C [10]: 42.4%
viability, T/C [11]: 66.4%
viability, T/C [12]: 53.9%
viability, T/C [13]: 76.5%
viability, T/C [14]: 66.8%
viability, T/C [15]: 54.8%
viability, T/C [16]: 45.9%
viability, T/C [17]: 53.8%
viability, T/C [18]: 47.6%
viability, T/C [19]: 86.8%
viability, T/C [20]: 81.9%
viability, T/C [21]: 43.2%
viability, T/C [22]: 57.3%
viability, T/C [23]: 81.9%
viability, T/C [24]: 64.7%
viability, T/C [25]: 84.3%
viability, T/C [26]: 59.9%
viability, T/C [27]: 62.8%
viability, T/C [28]: 54.1%
viability, T/C [29]: 54.5%
viability, T/C [30]: 75.8%
viability, T/C [31]: 92.3%
viability, T/C [32]: 69%
viability, T/C [33]: 61.4%
viability, T/C [34]: 47.4%
viability, T/C [35]: 58.1%
viability, T/C [36]: 44.8%

CCc1cc2c(N3CCc4c(cc(Cn5ccnc5)cc4-c4cn(C)nc4C(F)(F)F)C3=O)cc(C)nc2c(OC)n1 + Cc1cccc(N(C)C(=O)C2C(O)CCN2c2nc(C)cc(C(F)(F)F)c2C#N)c1
IC50 (second compound 0.0316 µM): > 10 µM
IC50 (second compound 0.1 µM): > 10 µM
IC50 (second compound 0.316 µM): > 10 µM
IC50 (second compound 1 µM): > 10 µM
IC50 (second compound 3.16 µM): > 10 µM
IC50 (second compound 10 µM): > 10 µM
viability, T/C [1]: 109%
viability, T/C [2]: 113%
viability, T/C [3]: 97%
viability, T/C [4]: 82.8%
viability, T/C [5]: 87.1%
viability, T/C [6]: 52.4%
viability, T/C [7]: 108%
viability, T/C [8]: 105%
viability, T/C [9]: 84.1%
viability, T/C [10]: 90.6%
viability, T/C [11]: 75.2%
viability, T/C [12]: 74.6%
viability, T/C [13]: 83.5%
viability, T/C [14]: 103%
viability, T/C [15]: 82.6%
viability, T/C [16]: 84.1%
viability, T/C [17]: 82.9%
viability, T/C [18]: 60.9%
viability, T/C [19]: 91.2%
viability, T/C [20]: 91.7%
viability, T/C [21]: 85.9%
viability, T/C [22]: 86.9%
viability, T/C [23]: 111%
viability, T/C [24]: 63.3%
viability, T/C [25]: 97.1%
viability, T/C [26]: 115%
viability, T/C [27]: 92.2%
viability, T/C [28]: 82.7%
viability, T/C [29]: 61.6%
viability, T/C [30]: 59.5%
viability, T/C [31]: 102%
viability, T/C [32]: 91.8%
viability, T/C [33]: 105%
viability, T/C [34]: 77.2%
viability, T/C [35]: 74%
viability, T/C [36]: 53.6%

CCc1cc2c(N3CCc4c(cc(Cn5ccnc5)cc4-c4cn(C)nc4C(F)(F)F)C3=O)ccnc2c(OC)n1 + Cc1cccc(N(C)C(=O)C2C(O)CCN2c2nc(C)cc(C(F)(F)F)c2C#N)c1
IC50 (second compound 0.0316 µM): > 10 µM
IC50 (second compound 0.1 µM): > 10 µM
IC50 (second compound 0.316 µM): > 10 µM
IC50 (second compound 1 µM): > 10 µM
IC50 (second compound 3.16 µM): > 10 µM
IC50 (second compound 10 µM): > 10 µM
viability, T/C [1]: 104%
viability, T/C [2]: 107%
viability, T/C [3]: 90.7%
viability, T/C [4]: 93.2%
viability, T/C [5]: 90.6%
viability, T/C [6]: 73.4%
viability, T/C [7]: 110%
viability, T/C [8]: 110%
viability, T/C [9]: 94.8%
viability, T/C [10]: 95.5%
viability, T/C [11]: 71%
viability, T/C [12]: 58.3%
viability, T/C [13]: 107%
viability, T/C [14]: 108%
viability, T/C [15]: 86.2%
viability, T/C [16]: 72%
viability, T/C [17]: 78.5%
viability, T/C [18]: 65.5%
viability, T/C [19]: 95.9%
viability, T/C [20]: 104%
viability, T/C [21]: 100%
viability, T/C [22]: 83.3%
viability, T/C [23]: 64.9%
viability, T/C [24]: 66.5%
viability, T/C [25]: 83.9%
viability, T/C [26]: 86.9%
viability, T/C [27]: 96.3%
viability, T/C [28]: 81.5%
viability, T/C [29]: 81.7%
viability, T/C [30]: 70.1%
viability, T/C [31]: 87.8%
viability, T/C [32]: 92.7%
viability, T/C [33]: 79.5%
viability, T/C [34]: 67.1%
viability, T/C [35]: 64.1%
viability, T/C [36]: 75.2%

COc1cc2cc(C(=O)CCC(=O)O)sc2cc1OC + Cc1cccc(N(C)C(=O)C2C(O)CCN2c2nc(C)cc(C(F)(F)F)c2C#N)c1
IC50 (second compound 0.0316 µM): > 10 µM
IC50 (second compound 0.1 µM): > 10 µM
IC50 (second compound 0.316 µM): > 10 µM
IC50 (second compound 1 µM): > 10 µM
IC50 (second compound 3.16 µM): > 10 µM
IC50 (second compound 10 µM): > 10 µM
viability, T/C [1]: 110%
viability, T/C [2]: 102%
viability, T/C [3]: 99.3%
viability, T/C [4]: 111%
viability, T/C [5]: 98.4%
viability, T/C [6]: 88.3%
viability, T/C [7]: 98.7%
viability, T/C [8]: 120%
viability, T/C [9]: 94.7%
viability, T/C [10]: 105%
viability, T/C [11]: 99.3%
viability, T/C [12]: 93.3%
viability, T/C [13]: 105%
viability, T/C [14]: 97.7%
viability, T/C [15]: 87.5%
viability, T/C [16]: 80.8%
viability, T/C [17]: 98.6%
viability, T/C [18]: 93.6%
viability, T/C [19]: 108%
viability, T/C [20]: 90.5%
viability, T/C [21]: 105%
viability, T/C [22]: 102%
viability, T/C [23]: 101%
viability, T/C [24]: 92.8%
viability, T/C [25]: 94.5%
viability, T/C [26]: 121%
viability, T/C [27]: 90.5%
viability, T/C [28]: 96.2%
viability, T/C [29]: 115%
viability, T/C [30]: 97.8%
viability, T/C [31]: 98%
viability, T/C [32]: 104%
viability, T/C [33]: 107%
viability, T/C [34]: 105%
viability, T/C [35]: 118%
viability, T/C [36]: 87.3%
